# Reference: patent US20230414599A1, “NICOTINAMIDE, NICOTINAMIDE PRECURSORS AND NICOTINAMIDE METABOLITES AND COMPOSITIONS THEREOF FOR REDUCING THE TIME TO RESOLUTION OF SYMPTOMS IN PATIENTS WITH COVID-19 AND OTHER VIRAL INFECTIONS” (CONARIS RESEARCH INSTITUTE AG, priority 2020, published 2023)
# Key:
# [1] = system: COVID-19; experiment: COVit-1 trial expanded to 56 patients (nicotinamide vs silica); assay type: in vivo; settings: for Absolute Risk difference of being symptom-free, 95% Confidence Level: nicotinamide vs silica; for Relative Risk of being symptom-free: silica = REF
# [2] = system: COVID-19; experiment: Pilot phase of the COVit-1 dietary intervention trial (n = 16 outpatients); assay type: in vivo
# [3] = baseline, before supplementation, n = 28
# [4] = reduction at week 2 vs baseline, generalized linear mixed model
# [5] = week 2, 1,000 mg/day immediate-release, n = 28
# [6] = 1,000 mg/day immediate-release, n = 8, up to 21 days after positive SARS-CoV-2 test
# [7] = 1,000 mg/day, n = 8, up to 21 days after positive test
# [8] = only patients with symptoms persisting at week 4 queried, n = 3
smiles,measurement,setting,value
"NC(=O)c1cccnc1 [Nicotinamide, nicotinamide]","Chest pain, patients with symptom",[1]; [3],25.0%
same,"Cough with sputum, patients with symptom",[1]; [3],25.0%
same,"Cough, patients with symptom",[1]; [3],71.4%
same,"Diarrhoea, patients with symptom",[1]; [3],28.6%
same,"Fatigue, patients with symptom",[1]; [3],82.1%
same,"Fever, patients with symptom",[1]; [3],50.0%
same,"Head cold (rhinorrhoea), patients with symptom",[1]; [3],78.6%
same,"Headache, patients with symptom",[1]; [3],78.6%
same,"Impaired sense of smell, patients with symptom",[1]; [3],60.7%
same,"Impaired sense of taste, patients with symptom",[1]; [3],64.3%
same,"Joint pain, patients with symptom",[1]; [3],35.7%
same,"Loss of appetite, patients with symptom",[1]; [3],42.9%
same,"Muscle pain, patients with symptom",[1]; [3],50.0%
same,"Other (individually reported) symptoms, patients with symptom",[1]; [3],28.6%
same,"Reduced physical performance, patients with symptom",[1]; [3],82.1%
same,"Shortness of breath, patients with symptom",[1]; [3],28.6%
same,"Sore throat, patients with symptom",[1]; [3],35.7%
same,"Vomiting, patients with symptom",[1]; [3],3.6%
same,"Loss of appetite, OR estimate nicotinamide vs. silica","[1]; reduction at week 2 vs baseline, footnote: OR very high",>>^‡
same,"Vomiting, OR estimate nicotinamide vs. silica","[1]; reduction at week 2 vs baseline, footnote: OR very high (unstable due to the small sample)",>>^‡‡
same,"Chest pain, OR estimate nicotinamide vs. silica",[1]; [4],12.7
same,"Cough with sputum, OR estimate nicotinamide vs. silica",[1]; [4],4.64
same,"Cough, OR estimate nicotinamide vs. silica",[1]; [4],1.01
same,"Diarrhoea, OR estimate nicotinamide vs. silica",[1]; [4],0.84
same,"Fatigue, OR estimate nicotinamide vs. silica",[1]; [4],2.72
same,"Fever, OR estimate nicotinamide vs. silica",[1]; [4],1.40
same,"Head cold (rhinorrhoea), OR estimate nicotinamide vs. silica",[1]; [4],1.41
same,"Headache, OR estimate nicotinamide vs. silica",[1]; [4],1.27
same,"Impaired sense of smell, OR estimate nicotinamide vs. silica",[1]; [4],2.05
same,"Impaired sense of taste, OR estimate nicotinamide vs. silica",[1]; [4],1.24
same,"Joint pain, OR estimate nicotinamide vs. silica",[1]; [4],2.74
same,"Muscle pain, OR estimate nicotinamide vs. silica",[1]; [4],1.09
same,"Other (individually reported) symptoms, OR estimate nicotinamide vs. silica",[1]; [4],1.07
same,"Reduced physical performance, OR estimate nicotinamide vs. silica",[1]; [4],1.19
same,"Shortness of breath, OR estimate nicotinamide vs. silica",[1]; [4],1.45
same,"Sore throat, OR estimate nicotinamide vs. silica",[1]; [4],9.25
same,"Chest pain, patients with symptom",[1]; [5],3.9%
same,"Cough with sputum, patients with symptom",[1]; [5],3.9%
same,"Cough, patients with symptom",[1]; [5],19.2%
same,"Diarrhoea, patients with symptom",[1]; [5],7.7%
same,"Fatigue, patients with symptom",[1]; [5],30.8%
same,"Fever, patients with symptom",[1]; [5],3.9%
same,"Head cold (rhinorrhoea), patients with symptom",[1]; [5],19.2%
same,"Headache, patients with symptom",[1]; [5],19.2%
same,"Impaired sense of smell, patients with symptom",[1]; [5],23.1%
same,"Impaired sense of taste, patients with symptom",[1]; [5],23.1%
same,"Joint pain, patients with symptom",[1]; [5],3.9%
same,"Loss of appetite, patients with symptom",[1]; [5],0.0%
same,"Muscle pain, patients with symptom",[1]; [5],3.9%
same,"Other (individually reported) symptoms, patients with symptom",[1]; [5],15.4%
same,"Reduced physical performance, patients with symptom",[1]; [5],34.6%
same,"Shortness of breath, patients with symptom",[1]; [5],26.9%
same,"Sore throat, patients with symptom",[1]; [5],3.9%
same,"Vomiting, patients with symptom",[1]; [5],0.0%
same,"Symptom-free, %","[1]; week 2, all COVID-19 patients, n = 28, intention to treat",35.7%
same,"Absolute Risk difference of being symptom-free, 95% Confidence Level","[1]; week 2, all patients",21.4 (−0.6; 43.4) %
same,Relative Risk of being symptom-free,"[1]; week 2, all patients",2.50
same,"Symptom-free, %","[1]; week 2, female patients, n = 17",47.1%
same,"Absolute Risk difference of being symptom-free, 95% Confidence Level","[1]; week 2, female patients",35.9 (8.1-63.8) ^ %
same,Relative Risk of being symptom-free,"[1]; week 2, female patients",4.24
same,"Symptom-free, %","[1]; week 2, male patients, n = 11",18.2%
same,"Absolute Risk difference of being symptom-free, 95% Confidence Level","[1]; week 2, male patients",1.8 (−35.5; 31.9) %
same,Relative Risk of being symptom-free,"[1]; week 2, male patients",0.91
same,"Time from diagnosis to symptom-free, median","[1]; week 2 analysis, all patients",11.0 days
same,"Time from diagnosis to symptom-free, median","[1]; week 2 analysis, female patients",10.5 days
same,"Time from diagnosis to symptom-free, median","[1]; week 2 analysis, male patients",13.0 days
same,"Symptom-free, %","[1]; week 4, all COVID-19 patients, n = 28, intention to treat",39.3%
same,"Absolute Risk difference of being symptom-free, 95% Confidence Level","[1]; week 4, all patients",−3.57 (−22.2; 29.3) %
same,Relative Risk of being symptom-free,"[1]; week 4, all patients",0.92
same,"Symptom-free, %","[1]; week 4, female patients, n = 17",52.9%
same,"Absolute Risk difference of being symptom-free, 95% Confidence Level","[1]; week 4, female patients",2.94 (−30.2; 36.1) %
same,Relative Risk of being symptom-free,"[1]; week 4, female patients",1.06
same,"Symptom-free, %","[1]; week 4, male patients, n = 11",18.2%
same,"Absolute Risk difference of being symptom-free, 95% Confidence Level","[1]; week 4, male patients",−0.12 (−48.2; 24.6) %
same,Relative Risk of being symptom-free,"[1]; week 4, male patients",0.61
same,Median time to resolution of symptoms compared to silica,"[1]; week 4, n = 28 per group",approximately half as long
same,"Time from diagnosis to symptom-free, median","[1]; week 4 analysis, all patients",13.0 days
same,"Time from diagnosis to symptom-free, median","[1]; week 4 analysis, female patients",13.0 days
same,"Time from diagnosis to symptom-free, median","[1]; week 4 analysis, male patients",16.5 days
same,Proportion of subjects still suffering from at least one COVID-19 symptom at or before day 21 after first testing positive,"[2]; 1,000 mg nicotinamide per day for 28 days, n = 8",50%
same,Patients with anorexia/loss of appetite at week 2,[2]; [6],0
same,Patients with arthralgia at week 2,[2]; [6],0
same,Patients with chest pain at week 2,[2]; [6],0
same,Patients with cough at week 2,[2]; [6],2
same,Patients with diarrhoea at week 2,[2]; [6],1
same,Patients with dyspnoea/shortness of breath at week 2,[2]; [6],2
same,Patients with fatigue at week 2,[2]; [6],2
same,Patients with fever (total) at week 2,[2]; [6],1
same,Patients with fever <38° C. at week 2,[2]; [6],1
same,Patients with fever >38° C. at week 2,[2]; [6],1
same,Patients with headache at week 2,[2]; [6],1
same,Patients with impaired sense of smell at week 2,[2]; [6],1
same,Patients with impaired sense of taste at week 2,[2]; [6],1
same,Patients with myalgia at week 2,[2]; [6],0
same,Patients with reduced physical performance at week 2,[2]; [6],2
same,Patients with rhinorrhoea at week 2,[2]; [6],1
same,Patients with sore throat/pharyngalgia at week 2,[2]; [6],0
same,Patients with sputum production at week 2,[2]; [6],1
same,Patients with vomiting at week 2,[2]; [6],0
same,Patients requiring hospitalisation before week 2,"[2]; 1,000 mg/day, n = 8",no patient
same,Patients with persisting symptoms at week 4,"[2]; 1,000 mg/day, n = 8",3
same,Symptom-free patients at week 4,"[2]; 1,000 mg/day, n = 8",5
same,Patients with persisting symptoms at week 2,[2]; [7],4
same,Symptom-free patients at week 2,[2]; [7],4
same,Patients with persisting symptoms at week 6,[2]; [8],2
same,Symptom-free patients at week 6,[2]; [8],1
